Numbered stars: 1 amine (or outer) side, 2 acyl side, 3 side chain; on linkers, the order of the positions; unused ones are H or OH. Bridge positions count the residues as written; N and C are the ends. Square brackets hold non-standard residues; d marks the D form. Peptide text beside a SMILES is read from it. Phe(4-COOH) = N[C@@H](Cc1ccc(C(=O)O)cc1)C(=O)O; Phe(2,4-Cl2) = N[C@@H](Cc1ccc(Cl)cc1Cl)C(=O)O; Bip = N[C@@H](Cc1ccc(-c2ccccc2)cc1)C(=O)O; dPhe(4-NH2) = Nc1ccc(C[C@@H](N)C(=O)O)cc1; Phe(4-Br) = N[C@@H](Cc1ccc(Br)cc1)C(=O)O; Phe(4-NH2) = Nc1ccc(C[C@H](N)C(=O)O)cc1; d(hPhe) = N[C@H](CCc1ccccc1)C(=O)O; d2Thi = N[C@H](Cc1cccs1)C(=O)O; Suc = O=C(CCC(=O)[*:2])[*:1]; Ac3c = NC1(C(=O)O)CC1; Aib = CC(C)(N)C(=O)O; Ava = NCCCCC(=O)O; GABA = NCCCC(=O)O; βAla = NCCC(=O)O A value given as a limit tells only on which side of the number the result lay.

For this assay, the target named is T1, TNFα / TNFα receptor (TNFα R1/Fc) (Homo sapiens, UniProt P01375).
T1 construct: purchased R&D Systems
T1 sequence (P01375 77-233 limits assumed, species assumed): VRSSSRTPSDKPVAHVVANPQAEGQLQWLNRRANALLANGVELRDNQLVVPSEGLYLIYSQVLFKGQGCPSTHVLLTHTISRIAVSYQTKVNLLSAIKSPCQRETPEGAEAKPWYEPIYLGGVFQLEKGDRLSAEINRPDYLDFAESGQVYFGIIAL
The assay is described as follows: Inhibition of binding of TNFα to the TNFα receptor (plate ELISA competition). The following applies: Table 2; read-out: Activity (IC50, inhibition of TNFα binding to TNFα R1/Fc). The procedure, abridged:
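Plates were coated with TNFα at 15 nM. Test compound and 8.33 nM receptor-Fc (PBST, 2% DMSO) were first mixed in solution for 30 min at room temperature, then transferred to the plates for another 30 min. Competition was read by absorbance at 450 nm after HRP anti-human IgG Fc detection with TMB.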
In the case of `O=C(O)CCNC(=O)[C@@H]1Cc2ccc(cc2)C(=O)N[C@H](CCc2ccccc2)C(=O)N[C@@H](Cc2ccc(-c3ccccc3)cc2)C(=O)N[C@H](Cc2ccccc2)C(=O)N1` [Compound 424] ([d(hPhe)][Bip][dF][Phe(4-COOH)][βAla]-OH; lactam N-4), the IC50 was < 10 µM.
For the compound `O=C(O)CCCNC(=O)[C@@H]1Cc2ccc(cc2)C(=O)N[C@H](CCc2ccccc2)C(=O)N[C@@H](Cc2ccc(-c3ccccc3)cc2)C(=O)N[C@H](Cc2ccccc2)C(=O)N1` [Compound 425] ([d(hPhe)][Bip][dF][Phe(4-COOH)][GABA]-OH; lactam N-4), the IC50 fell in the range of 30 to 100 µM.
Turning to `O=C1COc2ccc(cc2)C[C@@H](C(=O)O)NC(=O)[C@H](Cc2ccc(O)cc2)NC(=O)[C@@H](Cc2ccc(-c3ccccc3)cc2)NC(=O)[C@H](Cc2cccs2)N1` [Compound 427], the IC50 was > 100 µM.
As for `O=C(O)[C@H](Cc1ccccc1)NC(=O)[C@H]1Cc2ccc(cc2)NC(=O)[C@H](O)[C@@H](O)C(=O)N[C@H](Cc2cccs2)C(=O)N[C@@H](Cc2ccc(-c3ccccc3)cc2)C(=O)N[C@H](CCc2ccccc2)C(=O)N1` [Compound 429], the IC50 is < 10 µM.
Regarding `O=C(O)[C@H](Cc1ccccc1)NC(=O)[C@H]1Cc2ccc(cc2)NC(=O)[C@H](O)[C@@H](O)C(=O)N[C@H](Cc2cccs2)C(=O)N[C@@H](Cc2ccc(-c3ccccc3)cc2)C(=O)N[C@H](Cc2ccccc2)C(=O)N1` [Compound 430], the IC50 was in the range of 10 to 30 µM.
As for `O=C(O)[C@H](Cc1ccccc1)NC(=O)[C@H]1Cc2ccc(cc2)NC(=O)[C@H](O)[C@@H](O)C(=O)N[C@H](Cc2cccs2)C(=O)N[C@@H](Cc2ccc(Br)cc2)C(=O)N[C@H](Cc2ccccc2)C(=O)N1` [Compound 431], the IC50 is > 100 µM.
The figure for `O=C(O)[C@H](Cc1ccccc1)NC(=O)[C@H]1Cc2ccc(cc2)NC(=O)[C@H](O)[C@@H](O)C(=O)N[C@@H](Cc2cccs2)C(=O)N[C@H](Cc2ccc(-c3ccccc3)cc2)C(=O)N[C@@H](CCc2ccccc2)C(=O)N1` [Compound 432] is < 10 µM; for `O=C(O)[C@H](Cc1ccccc1)NC(=O)[C@@H]1Cc2ccc(cc2)NC(=O)[C@H](O)[C@@H](O)C(=O)N[C@@H](Cc2cccs2)C(=O)N[C@H](Cc2ccc(-c3ccccc3)cc2)C(=O)N[C@@H](CCc2ccccc2)C(=O)N1` [Compound 433] it is > 100 µM.
The figure for `O=C(O)[C@H](Cc1ccccc1)NC(=O)[C@H]1Cc2ccc(cc2)NC(=O)[C@H](O)[C@@H](O)C(=O)N[C@@H](Cc2cccs2)C(=O)N[C@H](Cc2ccc(-c3ccccc3)cc2)C(=O)N[C@@H](Cc2ccccc2)C(=O)N1` [Compound 434] is < 10 µM.
As for `O=C(O)[C@H](Cc1ccccc1)NC(=O)[C@@H]1Cc2ccc(cc2)NC(=O)[C@H](O)[C@@H](O)C(=O)N[C@@H](Cc2cccs2)C(=O)N[C@H](Cc2ccc(-c3ccccc3)cc2)C(=O)N[C@@H](Cc2ccccc2)C(=O)N1` [Compound 435], the IC50 is < 10 µM.
For the compound `O=C(O)[C@H](Cc1ccccc1)NC(=O)[C@H]1Cc2ccc(cc2)NC(=O)[C@H](O)[C@@H](O)C(=O)N[C@@H](Cc2cccs2)C(=O)N[C@H](Cc2ccc(Br)cc2)C(=O)N[C@@H](CCc2ccccc2)C(=O)N1` [Compound 436], the IC50 was < 10 µM.
For `O=C(O)[C@H](Cc1ccccc1)NC(=O)[C@@H]1Cc2ccc(cc2)NC(=O)[C@H](O)[C@@H](O)C(=O)N[C@@H](Cc2cccs2)C(=O)N[C@H](Cc2ccc(Br)cc2)C(=O)N[C@@H](CCc2ccccc2)C(=O)N1` [Compound 437], the IC50 was in the range of 10 to 30 µM.
For the compound `O=C(O)[C@H](Cc1ccccc1)NC(=O)[C@H]1Cc2ccc(cc2)NC(=O)[C@H](O)[C@@H](O)C(=O)N[C@@H](Cc2cccs2)C(=O)N[C@H](Cc2ccc(Br)cc2)C(=O)N[C@@H](Cc2ccccc2)C(=O)N1` [Compound 438], the IC50 is < 10 µM.
Take `O=C(O)[C@H](Cc1ccccc1)NC(=O)[C@@H]1Cc2ccc(cc2)NC(=O)[C@H](O)[C@@H](O)C(=O)N[C@@H](Cc2cccs2)C(=O)N[C@H](Cc2ccc(Br)cc2)C(=O)N[C@@H](Cc2ccccc2)C(=O)N1` [Compound 439]: the IC50 was in the range of 30 to 100 µM.
Regarding `O=C1CCC(=O)N[C@H](CCc2ccccc2)C(=O)N[C@@H](Cc2ccc(Br)cc2)C(=O)N[C@H](Cc2ccccc2)C(=O)N[C@@H](C(=O)N[C@@H](Cc2ccccc2)C(=O)O)Cc2ccc(cc2)N1` [Compound 440] ([d(hPhe)][Phe(4-Br)][dF][dPhe(4-NH2)]F-OH; linker N-4 via Suc), the IC50 lay within 10 to 30 µM.
With `O=C1CCC(=O)N[C@H](CCc2ccccc2)C(=O)N[C@@H](Cc2ccc(Cl)cc2Cl)C(=O)N[C@H](Cc2ccccc2)C(=O)N[C@@H](C(=O)N[C@@H](Cc2ccccc2)C(=O)O)Cc2ccc(cc2)N1` [Compound 441] ([d(hPhe)][Phe(2,4-Cl2)][dF][dPhe(4-NH2)]F-OH; linker N-4 via Suc), the IC50 was in the range of 10 to 30 µM.
The figure for `O=C(O)[C@H](Cc1ccccc1)NC(=O)[C@@H]1Cc2ccc(cc2)NC(=O)[C@H](O)[C@@H](O)C(=O)N[C@H](Cc2cccs2)C(=O)N[C@@H](Cc2ccc(-c3ccc(Cl)cc3)cc2)C(=O)N[C@H](Cc2ccccc2)C(=O)N1` [Compound 443] is 10 to 30 µM.
Consider `O=C1CCC(=O)N[C@H](Cc2cccs2)C(=O)N[C@@H](Cc2ccc(-c3ccccc3)cc2)C(=O)N[C@H](CCc2ccccc2)C(=O)N[C@H](C(=O)N[C@H](Cc2ccccc2)C(=O)O)Cc2ccc(cc2)N1` [Compound 444] ([d2Thi][Bip][d(hPhe)][Phe(4-NH2)][dF]-OH; linker N-4 via Suc), for which the IC50 is 30 to 100 µM.
For `O=C1CCC(=O)N[C@H](Cc2cccs2)C(=O)N[C@@H](Cc2ccc(-c3ccccc3)cc2)C(=O)N[C@H](CCc2ccccc2)C(=O)N[C@H](C(=O)N[C@@H](Cc2ccccc2)C(=O)O)Cc2ccc(cc2)N1` [Compound 445] ([d2Thi][Bip][d(hPhe)][Phe(4-NH2)]F-OH; linker N-4 via Suc), the IC50 was in the range of 10 to 30 µM.
In the case of `C[C@@H](NC(=O)[C@@H]1Cc2ccc(cc2)NC(=O)CCC(=O)N[C@H](Cc2cccs2)C(=O)N[C@@H](Cc2ccc(-c3ccccc3)cc2)C(=O)N[C@H](CCc2ccccc2)C(=O)N1)C(=O)O` [Compound 446] ([d2Thi][Bip][d(hPhe)][Phe(4-NH2)][dA]-OH; linker N-4 via Suc), the IC50 was > 100 µM.
With `C[C@H](NC(=O)[C@@H]1Cc2ccc(cc2)NC(=O)CCC(=O)N[C@H](Cc2cccs2)C(=O)N[C@@H](Cc2ccc(-c3ccccc3)cc2)C(=O)N[C@H](CCc2ccccc2)C(=O)N1)C(=O)O` [Compound 447] ([d2Thi][Bip][d(hPhe)][Phe(4-NH2)]A-OH; linker N-4 via Suc), the IC50 was > 100 µM.
For `O=C(O)CCNC(=O)[C@@H]1Cc2ccc(cc2)NC(=O)CCC(=O)N[C@H](Cc2cccs2)C(=O)N[C@@H](Cc2ccc(-c3ccccc3)cc2)C(=O)N[C@H](CCc2ccccc2)C(=O)N1` [Compound 448] ([d2Thi][Bip][d(hPhe)][Phe(4-NH2)][βAla]-OH; linker N-4 via Suc), the IC50 fell in the range of 10 to 30 µM.
The figure for `O=C(O)CCCNC(=O)[C@@H]1Cc2ccc(cc2)NC(=O)CCC(=O)N[C@H](Cc2cccs2)C(=O)N[C@@H](Cc2ccc(-c3ccccc3)cc2)C(=O)N[C@H](CCc2ccccc2)C(=O)N1` [Compound 449] ([d2Thi][Bip][d(hPhe)][Phe(4-NH2)][GABA]-OH; linker N-4 via Suc) is > 100 µM.
For `O=C(O)CCCCNC(=O)[C@@H]1Cc2ccc(cc2)NC(=O)CCC(=O)N[C@H](Cc2cccs2)C(=O)N[C@@H](Cc2ccc(-c3ccccc3)cc2)C(=O)N[C@H](CCc2ccccc2)C(=O)N1` [Compound 450] ([d2Thi][Bip][d(hPhe)][Phe(4-NH2)][Ava]-OH; linker N-4 via Suc), the IC50 fell in the range of 30 to 100 µM.
On to `O=C1CCC(=O)N[C@H](Cc2cccs2)C(=O)N[C@@H](Cc2ccc(-c3ccccc3)cc2)C(=O)N[C@H](CCc2ccccc2)C(=O)N[C@H](C(=O)NC2(C(=O)O)CC2)Cc2ccc(cc2)N1` [Compound 451] ([d2Thi][Bip][d(hPhe)][Phe(4-NH2)][Ac3c]-OH; linker N-4 via Suc), for which the IC50 was in the range of 30 to 100 µM.
As to `CC(C)(NC(=O)[C@@H]1Cc2ccc(cc2)NC(=O)CCC(=O)N[C@H](Cc2cccs2)C(=O)N[C@@H](Cc2ccc(-c3ccccc3)cc2)C(=O)N[C@H](CCc2ccccc2)C(=O)N1)C(=O)O` [Compound 452] ([d2Thi][Bip][d(hPhe)][Phe(4-NH2)][Aib]-OH; linker N-4 via Suc), the IC50 was > 100 µM.
On to `O=C(O)CNC(=O)[C@@H]1Cc2ccc(cc2)NC(=O)CCC(=O)N[C@H](Cc2cccs2)C(=O)N[C@@H](Cc2ccc(-c3ccccc3)cc2)C(=O)N[C@H](CCc2ccccc2)C(=O)N1` [Compound 453] ([d2Thi][Bip][d(hPhe)][Phe(4-NH2)]G-OH; linker N-4 via Suc), for which the IC50 is > 100 µM.
The figure for `O=C1CCC(=O)N[C@H](Cc2ccccc2)C(=O)N[C@@H](Cc2ccc(-c3ccccc3)cc2)C(=O)N[C@H](CCc2ccccc2)C(=O)N[C@H](C(=O)O)Cc2ccc(cc2)N1` [Compound 454] ([dF][Bip][d(hPhe)][Phe(4-NH2)]-OH; linker N-4 via Suc) is 10 to 30 µM.
The figure for `O=C1CCC(=O)N[C@H](Cc2ccccc2)C(=O)N[C@@H](Cc2ccc(-c3ccccc3)cc2)C(=O)N[C@H](CCc2ccccc2)C(=O)N[C@H](C(=O)N[C@H](Cc2ccccc2)C(=O)O)Cc2ccc(cc2)N1` [Compound 455] ([dF][Bip][d(hPhe)][Phe(4-NH2)][dF]-OH; linker N-4 via Suc) is > 100 µM; for `O=C1CCC(=O)N[C@H](Cc2ccccc2)C(=O)N[C@@H](Cc2ccc(-c3ccccc3)cc2)C(=O)N[C@H](CCc2ccccc2)C(=O)N[C@H](C(=O)N[C@@H](Cc2ccccc2)C(=O)O)Cc2ccc(cc2)N1` [Compound 456] ([dF][Bip][d(hPhe)][Phe(4-NH2)]F-OH; linker N-4 via Suc) it is > 100 µM; for `C[C@@H](NC(=O)[C@@H]1Cc2ccc(cc2)NC(=O)CCC(=O)N[C@H](Cc2ccccc2)C(=O)N[C@@H](Cc2ccc(-c3ccccc3)cc2)C(=O)N[C@H](CCc2ccccc2)C(=O)N1)C(=O)O` [Compound 457] ([dF][Bip][d(hPhe)][Phe(4-NH2)][dA]-OH; linker N-4 via Suc) it is > 100 µM.

These data come from patent US8338565B2, “Macrocyclic compounds for inhibition of tumor necrosis factor alpha” (Ensemble Therapeutics Corporation, priority 2008, dated 2012).
